Experimental data from patent US20240139167A1, “LYSOSOME-ASSOCIATED MEMBRANE PROTEIN TARGETING COMPOUNDS AND USES THEREOF” (HADASIT MEDICAL RESEARCH SERVICES AND DEVELOPMENT LTD., priority 2021, published 2024).

Assays:
Gbe^ys/ys mice [1] = assay: Transmission electron microscopy of liver sections, lysosomal glycogen; assay type: in vivo; conditions: 9.5 month old mice
Text: FIGS. 6A-6E include bar graphs of autophagic flux, determined by the extent of lysosomal inhibitors-dependent increase in the ratio of lipidated to non-lipidated LC3 (LC3II/LC3I) (6A); representative TEM images of liver tissue from 9.5 month old Gbe^ys/ys mice treated with Compound 11, or 5% DMSO vehicle (6B), G: Glycogen (alpha particles) and polyglucosan (structures with variable electron densities), L: Lysosomes, M: Mitochondria; right panel: lysosomal glycogen stain was quantified by ImageJ “count particle” tool; micrograph of LAMP1 knocked down and control APBD primary skin fibroblasts treated or not with Compound 1 and lysosomal inhibitors (LI) and quantification of 3 experiments and results of Student's t-tests. *, p<0.1; **, p<0.05; ***, p<0.01 (6C); graphs of lysosomal pH changes determined in APBD primary fibroblasts transduced with lentiviruses encoding for GFP or GFP-shLAMP1 and treated or not with Compound 1 for 24 h and confocal microscope images of cells treated with Lysosensor and stained for PAS (6D); and bar graph of ATP production rate assay in LAMP1-KD and GFP (Control) cells treated for 24 h (chronic) or on assay (acute) with Compound 1 (6E).
Liver tissue was minced and fixed in a solution containing 2% paraformaldehyde, 2.5% glutaraldehyde (EM grade) in 0.1 M sodium cacodylate buffer pH 7.3 for 2 hours at RT, followed by 24 h at 4 ° C. […]

[2] = tested on: microglia cells from brains of 5XFAD mice; assay: LC3, p62 and PAS staining of microglia from AD model; assay type: cell-based; conditions: 50 μM, 24 h
Procedure: FIGS. 19A-19B include fluorescent micrographs showing microglia cells which were isolated from the brains of AD modeling 5XFAD mice by CD11b magnetic beads. Microglia were then incubated for 24 h with (treated), or without (untreated) 50 μM 144DG11, fixed and stained for the autophagic substrates LC3 (19A) and p62 (19B) and for glycogen by PAS, all as indicated. Reduction in the levels of both LC3 and p62 indicate induction of autophagy which degrades these substrates.
Being the most pro-inflammatory tissue in the brain, microglia are currently at the epicenter of innovative therapeutic research for AD. Moreover, as neuroinflammation is now accepted as the main pathogenic factor in AD and as activation of microglia autophagy and mitophagy is a leading therapeutic strategy (see, for instance, Eshraghi et al., (2021)), 144DG11 holds promise as a potential AD therapeutic.

Gbe^ys/ys mice [3] = assay: In vivo metabolism in metabolic cages; conditions: 9 months old mice
Procedure: FIGS. 3A-3I include a graph of the effect of Compound 1 on in vivo metabolism; mice were monitored by the Promethion High-Definition Behavioral Phenotyping System (Sable Instruments, Inc.) over a 24 hr period. Effective mass was calculated by power of 0.75. Data are mean±SEM from n=11 9 months old mice in the wt. control vehicle arm, n=6 9 months old mice in the GBE^ys/ys vehicle arm and n=7 9 months old mice in the Gbe^ys/ys 144DG11 (Compound 1)-treated arm. All injections were from the age of 4 months. […] Blood metabolic panel based on n=5, 9.5 months old mice treated as indicated (3I). Blood glucose was increased, and blood triglycerides decreased in Gbe^ys/ys […] by Compound 1 (p<0.05, Student's t-tests). *p<0.05 v wt. controls, #p<0.05 v GBE^ys/ys vehicle treated mice;
The effect of Compound 1 on various metabolic parameters was determined in vivo using metabolic cages. Fuel preference at the whole animal level is determined by the respiratory quotient (RQ, the ratio of CO2 produced to O2 consumed). Lower RQ indicates higher fat burn, while higher RQ indicates higher carbohydrate burn. […] Stimulation of ambulatory activity (FIG. 3E) and of meal size and water intake (FIGS. 3F-3H) are in line with this observation of stimulation of carbohydrate catabolism in affected animals by Compound 1. Moreover, put together, the increased fuel burning, and food intake indicate that Compound 1 can improve metabolic efficiency in the affected animals.

[4] = tested on: skin fibroblasts derived from Gsd1a patients; assay: NAD+/NADH ratio, Sirt1 and p62 expression; assay type: cell-based, human; conditions: 50 μM, 24 h
Procedure: FIG. 21 includes vertical bar graphs showing skin fibroblasts derived from Gsd1a patients were treated with solvent or 50 μM Compound A for 24 h and analyzed for NAD+/NADH ratio by the Promega kit (left panel) and for Sirt1 (middle panel) and p62 (right panel) expression by western immunoblotting.
NAD+ and NADH are key precursors for the electron transfer chain, TCA cycle, glycolysis, amino acid synthesis, fatty acid synthesis, and nucleotide synthesis. The NAD+/NADH ratio reports the extent of overall catabolism and the balance between glycolysis and OxPhos. The increase in the NAD+/NADH ratio means acceleration of electron flow in the mitochondrial electron transport chain (note, not mitochondrial ATP production) and of glycolysis to better manage metabolic demands. Furthermore, Sirt1 induction, often associated with increased NAD+/NADH ratio, is a well-documented and innovative anti-aging, calorie restriction-mimic and anti-cancer therapeutic strategy (see for example Hyun et al., (2020)). Thus, the results in Gsd1a cells (FIG. 21), showing induction of the NAD+/NADH ratio, as well as Sirt1, indicate that 144DG11 is a promising therapy for a plethora of different metabolic disorders, aging-related complications, and cancer.

In the case of COCCN(Cc1sccc1C)C(=O)c1cc(C)nc(O)c1 [Compound 1], the “lysosomal glycogen in liver sections” value (Gbe^ys/ys mice [1]) is reported as “decrease in lysosomal glycogen”, the glycogen levels [2] is reported as “did not lower glycogen levels” and the “total LC3 and p62” value [2] is reported as “decrease”. The ambulatory activity (Gbe^ys/ys mice [3]) was “Stimulation”, the “carbohydrate burning at the expense of fat burning” value (Gbe^ys/ys mice [3]) was “increases” and the “meal size and water intake” value (Gbe^ys/ys mice [3]) was “Stimulation”. For the same molecule, the total energy expenditure (Gbe^ys/ys mice [3]) was “increases”, the “respiratory quotient (RQ)” value (Gbe^ys/ys mice [3]; injections from age 4 months) was “increased RQ to even higher levels than those of the wild type (wt) animals” and the “NAD+/NADH ratio” value [4] was “induction”. The Sirt1 expression [4] was “induction” and the p62 expression [4] was “downmodulated”.
